The source of these data is patent US4259235A, “Tricyclic nitrogenous compounds having string plant growth regulating properties” (BASF Aktiengesellschaft, priority 1977, dated 1981).

The test system of assay [1] is spring barley. Description: Growth height of spring barley, soil treatment, Example 10. It counts as in vivo, spring barley ("Union" variety). The procedure: (§1) Spring wheat ("Opal" variety) and spring barley ("Union" variety) were grown under greenhouse conditions in plastic dishes 11.5 cm in diameter, in a peat substrate provided with sufficient nutrients. For the soil (preemergence) treatment, the active ingredients were poured, at two application rates, as aqueous formulations onto the surface of the substrate after sowing.
(§2) The plant height was measured at the end of the experiment. The figures obtained show the shortening effect of the active ingredients under investigation. The prior art compound β-chloroethylphosphonic acid (Ethephon, German Printed Application DAS No. 1,667,968) was used for comparison purposes.

The test system of assay [2] is spring barley. Description: Growth height of spring barley, leaf treatment, Example 10. It counts as in vivo, spring barley ("Union" variety). How it is done: as §1
Leaf treatment was effected by spraying the plants at a growth height of 10 cm with aqueous formulations of the active ingredients at two application rates.
as §2

Another assay concerns grass. Description: Growth height of, and amount of mowings in, grass, Example 12. It counts as in vivo. As to conditions: for First mowing, growth height, relative / First mowing, mowings, relative / Second mowing, growth height, relative / Second mowing, mowings, relative: control = 100. An excerpt:
In an experiment in large vessels, lawn seed of the following standard composition was sown in a loamy soil: Agrostis tenuis (10%), Cynosurus cristatus (10%), Festuca rubra (15%), Lolium perenne (35%) and Poa pratensis (30%). 1.5 g of N as ammonium nitrate and 1 g of P2 O5 as secondary potassium phosphate were applied as fertilizer. After the grass had been cut twice, the active ingredients were sprayed in conventional manner at various application rates onto the grass which was 4 cm high. The growth height and the mowings were determined 19 days after the treatment. Compared with the control, the treated plants reacted with most considerable height reductions and a proportionate decrease in mowings.

For the compound `Clc1ccc(C2N=NC3C4CC(C5N=NC45)C23)cc1` (stereo not shown) [drawing 404], the Plant height with spring barley [1] (3 kg/ha) was 22.0 cm; with spring barley [1] (12 kg/ha), 20.0 cm. Moreover, the “Plant height, % of untreated control” value in the assay with spring barley [1] (3 kg/ha) is given as 64.1%; with spring barley [1] (12 kg/ha), 58.3%.
The like results for `Brc1ccc(C2=NOC3C4CC(C5N=NC45)C23)cc1` (stereo not shown) [drawing 405] were, in that order, 28.0 cm, 26.0 cm, 81.6% and 75.8%.
As for `O=[N+]([O-])c1ccc(C2=NOC3C4CC(C5N=NC45)C23)cc1` (stereo not shown) [drawing 406], the Plant height is on record as 27.0 cm in the assay on spring barley [1] (3 kg/ha) and 24.0 cm in the assay with spring barley [1] (12 kg/ha). Further, the “Plant height, % of untreated control” value with spring barley [1] (3 kg/ha) was determined as 78.8%; with spring barley [1] (12 kg/ha), 70.0%.
The like results for `Cc1ccc(C2=NOC3C4CC(C5N=NC45)C23)cc1` (stereo not shown) [drawing 407] were, in that order, 25.0 cm, 21.0 cm, 72.9% and 61.2%.
On the same counts, the results for `COc1ccc(C2=NOC3C4CC(C5N=NC45)C23)cc1` (stereo not shown) [drawing 408] are 30.0 cm, 29.0 cm, 87.5% and 84.5%.
In the case of `Clc1ccc(C2=NOC3C4CC(C5N=NC45)C23)cc1` (stereo not shown) [drawing 409], in the assay on spring barley [1] (3 kg/ha), the Plant height is on record as 26.0 cm and the “Plant height, % of untreated control” value was 75.8%. Moreover, in the assay with spring barley [1] (12 kg/ha), the Plant height is recorded as 24.0 cm and the “Plant height, % of untreated control” value came out at 70.0%.
For `Clc1ccc(C2N=NC3C4CC(C5N=NC45)C23)cc1` (stereo not shown) [drawing 410], in the assay on spring barley [2] (1.5 kg/ha), the Plant height turned out to be 22.0 cm and the “Plant height, % of untreated control” value was determined as 78.6%. In addition, in the assay with spring barley [2] (6.0 kg/ha), the Plant height came to 19.5 cm and the “Plant height, % of untreated control” value came out at 69.6%.
On the same counts, the results for `Brc1ccc(C2=NOC3C4CC(C5N=NC45)C23)cc1` (stereo not shown) [drawing 411] are 25.5 cm, 91.1%, 25.0 cm and 89.3%.
On the same counts, the results for `O=[N+]([O-])c1ccc(C2=NOC3C4CC(C5N=NC45)C23)cc1` (stereo not shown) [drawing 412] are 25.0 cm, 89.3%, 24.5 cm and 87.5%.
The like results for `Cc1ccc(C2=NOC3C4CC(C5N=NC45)C23)cc1` (stereo not shown) [drawing 413] were, in that order, 25.5 cm, 91.1%, 25.0 cm and 89.3%.
Take `c1ccc(C2=NOC3C4CC(C5N=NC45)C23)cc1` (stereo not shown) [drawing 424]: in the assay on grass (3.0 kg/ha), the “First mowing, growth height” value worked out at 20.0 cm; the “First mowing, mowings” value is recorded as 116.3 g; the “Second mowing, growth height” value stood at 19.0 cm; the “Second mowing, mowings” value came to 94.8 g. Moreover, in the assay on grass (3.0 kg/ha), the “First mowing, growth height, relative” value is 91.7; the “First mowing, mowings, relative” value is reported as 86.7; the “Second mowing, growth height, relative” value worked out at 95.0; the “Second mowing, mowings, relative” value came out at 104.6. In the assay on grass (6.0 kg/ha), the “First mowing, growth height” value amounted to 17.0 cm; the “First mowing, mowings” value worked out at 101.1 g; the “Second mowing, growth height” value is on record as 16.5 cm; the “Second mowing, mowings” value is 85.2 g. Moreover, in the assay with grass (6.0 kg/ha), the “First mowing, growth height, relative” value is recorded as 78.0; the “First mowing, mowings, relative” value was determined as 75.3; the “Second mowing, growth height, relative” value was 82.5; the “Second mowing, mowings, relative” value was found to be 94.0.
Regarding `Clc1ccc(C2N=NC3C4CC(C5N=NC45)C23)cc1` (stereo not shown) [drawing 425], in the assay on grass (3.0 kg/ha), the “First mowing, growth height” value is 20.0 cm; the “First mowing, mowings” value stood at 125.1 g; the “Second mowing, growth height” value came out at 19.0 cm; the “Second mowing, mowings” value is reported as 89.9 g. Besides, in the assay on grass (3.0 kg/ha), the “First mowing, growth height, relative” value was found to be 91.7; the “First mowing, mowings, relative” value was determined as 93.2; the “Second mowing, growth height, relative” value was determined as 95.0; the “Second mowing, mowings, relative” value was determined as 99.2. In the assay on grass (6.0 kg/ha), the “First mowing, growth height” value worked out at 18.0 cm; the “First mowing, mowings” value amounted to 119.0 g; the “Second mowing, growth height” value came out at 19.0 cm; the “Second mowing, mowings” value is on record as 92.2 g. Besides, in the assay on grass (6.0 kg/ha), the “First mowing, growth height, relative” value came to 82.6; the “First mowing, mowings, relative” value was determined as 88.7; the “Second mowing, growth height, relative” value came out at 95.0; the “Second mowing, mowings, relative” value was 101.8.
Take `Clc1ccc(C2=NOC3C4CC(C5N=NC45)C23)cc1` (stereo not shown) [drawing 426]: in the assay on grass (3.0 kg/ha), the “First mowing, growth height” value worked out at 21.0 cm; the “First mowing, mowings” value turned out to be 117.7 g; the “Second mowing, growth height” value was determined as 18.5 cm; the “Second mowing, mowings” value stood at 75.3 g. For the same compound, in the assay with grass (3.0 kg/ha), the “First mowing, growth height, relative” value is reported as 96.3; the “First mowing, mowings, relative” value was determined as 87.7; the “Second mowing, growth height, relative” value came out at 92.5; the “Second mowing, mowings, relative” value is reported as 83.1. Further, in the assay with grass (6.0 kg/ha), the “First mowing, growth height” value was 18.5 cm; the “First mowing, mowings” value came to 114.0 g; the “Second mowing, growth height” value was found to be 17.0 cm; the “Second mowing, mowings” value worked out at 72.1 g. For the same compound, in the assay on grass (6.0 kg/ha), the “First mowing, growth height, relative” value came to 84.9; the “First mowing, mowings, relative” value was found to be 84.9; the “Second mowing, growth height, relative” value stood at 85.0; the “Second mowing, mowings, relative” value turned out to be 79.6.
